Data on 9 compounds can be found in publication PMC8851660 (ACS Omega, 2022).

For experiment [1], the system named is P. aeruginosa (ATCC 29853). It is filed as cell-based, Pseudomonas aeruginosa.
Experiment [2] has as its system P. aeruginosa MDR. As to the kind of experiment: microbe, parasite or virus in culture. As to conditions: for MIC: Pseudomonas aeruginosa, read-out: Gram-negative MIC P. aeruginosa MDR. It is filed as cell-based, Pseudomonas aeruginosa.
For experiment [3], the system named is E. coli (ATCC 25922). Put plainly: microbe, parasite or virus in culture. The class given is cell-based. To be noted: Escherichia coli, ATCC25922, read-out: Gram-negative MIC E. coli ATCC 25922.
In experiment [4] the test system is S. aureus clinical. As to the kind of experiment: microbe, parasite or virus in culture. The class given is cell-based. To be noted: Staphylococcus aureus, read-out: Gram-positive MIC S. aureus clinical.
Experiment [5] deals with E. coli MDR. As to the kind of experiment: microbe, parasite or virus in culture. It is filed as cell-based. As to conditions: Escherichia coli, read-out: Gram-negative MIC E. coli MDR.
Experiment [6] relates to C. albicans clinical. Put plainly: microbe, parasite or virus in culture. The class given is cell-based, Candida albicans. As to conditions: for MIC: Candida albicans, read-out: fungi MIC C. albicans clinical.

Values after ≈ are worked out from the molar mass of the structure shown. Some results are limits rather than exact numbers.

In the case of `CC1(C)S[C@@H]2[C@H](NC(=O)[C@H](N)c3ccc(O)cc3)C(=O)N2[C@H]1C(=O)O` [AMOX, amoxicillin, reference compound], the “Gram-negative MIC P. aeruginosa (ATCC 29853)” value in experiment [1] was more than 500 µg/mL. Also, the “Gram-negative MIC P. aeruginosa MDR” value in experiment [2] was more than 500 µg/mL. Also, the MIC in experiment [2] was more than 500 µg/mL; in experiment [3], 62.5 µg/mL (≈ 171 µM); in experiment [4], not above 7.81 µg/mL; in experiment [5], 250 µg/mL (≈ 684 µM).
With `Cc1nc2ccccc2n(-c2ccc([N+](=O)[O-])cc2[N+](=O)[O-])c1=O` [Compound 4, 1-(2,4-Dinitrophenyl)-3-methylquinoxalin-2(1H)-one], the MIC in experiment [6] is 125 µg/mL (≈ 383 µM); in experiment [2] it was 125 µg/mL (≈ 383 µM); in experiment [3], 125 µg/mL (≈ 383 µM); in experiment [4] it was 16.1 µg/mL (≈ 49.4 µM); in experiment [5], 125 µg/mL (≈ 383 µM).
With `O=c1c(Cc2ccccc2)nc2ccccc2n1-c1ccc([N+](=O)[O-])cc1[N+](=O)[O-]` [Compound 5, 3-Benzyl-1-(2,4-dinitrophenyl)quinoxalin-2(1H)-one], the MIC in experiment [6] is more than 500 µg/mL; in experiment [2] it was 125 µg/mL (≈ 311 µM); in experiment [3] it was more than 500 µg/mL; in experiment [4] it was 500 µg/mL (≈ 1240 µM); in experiment [5] it was more than 500 µg/mL.
For `O=[N+]([O-])c1ccc(Sc2nc3ccccc3s2)c([N+](=O)[O-])c1` [Compound 6, 2-[(2,4-Dinitrophenyl)thio]benzo[d]thiazole], the MIC in experiment [6] is 500 µg/mL (≈ 1500 µM); in experiment [2] it was 125 µg/mL (≈ 375 µM); in experiment [3] it was 500 µg/mL (≈ 1500 µM); in experiment [4], 500 µg/mL (≈ 1500 µM); in experiment [5], more than 500 µg/mL.
As for `Cn1ccc(=O)nc1Sc1ccc([N+](=O)[O-])cc1[N+](=O)[O-]` [Compound 7, 2-[(2,4-Dinitrophenyl)thio]-1-methylpyrimidin-4(1H)-one], the MIC was found to be 16.1 µg/mL (≈ 52.3 µM) in experiment [6]; 125 µg/mL (≈ 405 µM) in experiment [2]; 64.5 µg/mL (≈ 209 µM) in experiment [3]; 32.2 µg/mL (≈ 105 µM) in experiment [4]; 125 µg/mL (≈ 405 µM) in experiment [5].
In the case of `O=[N+]([O-])c1ccc(Oc2cccc3cccnc23)c([N+](=O)[O-])c1` [Compound 8, 8-(2,4-Dinitrophenoxy)quinoline], the MIC in experiment [6], in experiment [2], in experiment [3], in experiment [4] and in experiment [5] was 125 µg/mL (≈ 402 µM) in each case.
As for `CC(C)(C)c1cccc(C(C)(C)C)c1Oc1ccc([N+](=O)[O-])cc1[N+](=O)[O-]` [Compound 9, 1,3-Di-tert-butyl-2-(2,4-dinitrophenoxy)benzene], the MIC is more than 500 µg/mL in experiment [6]; 125 µg/mL (≈ 336 µM) in experiment [2]; more than 500 µg/mL in experiment [3]; 500 µg/mL (≈ 1340 µM) in experiment [4]; 125 µg/mL (≈ 336 µM) in experiment [5].
In the case of `O=[N+]([O-])c1ccc(-n2ccnc2)c([N+](=O)[O-])c1` [Compound 11, 1-(2,4-Dinitrophenyl)-1H-imidazole], the MIC in experiment [6], in experiment [2], in experiment [3], in experiment [4] and in experiment [5] was 125 µg/mL (≈ 534 µM) each time.
Consider `C[C@@H]1[C@H](O)[C@@H](C)/C=C/C=C/CC/C=C/C=C/C=C/C=C/C(O[C@H]2O[C@H](C)[C@@H](O)[C@H](N)[C@@H]2O)CC2O[C@](O)(CC(O)C(O)CCC(O)CC(O)CC(O)CC(=O)O[C@H]1C)CC(O)C2C(=O)O` (stereo partly drawn) [NYS, nystatin, reference compound], for which the “fungi MIC C. albicans clinical” value in experiment [6] was less than 2 µg/mL.
